Reference: PubChem BioAssay AID1963439 (Molecular Pharmacology Branch, DTP, NCI, 2024)

System: NCI-H196 complex spheroids with HUVEC/MSC, growth % T/C
Test: Anticancer human tumor NCI-H196 cell line growth inhibition [Asc];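 note: spheroids exposed to compound for 7 days before measurement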;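 for viability, T/C: 100% = DMSO vehicle control wells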
Conditions: for IC50: curve of first compound; for viability, T/C: stronger effect = lower value
Method in brief: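 Spheroid model: tumor line + HUVEC + hMSC. Single agents and combinations; top conc. at/near clinical Cmax (10 microM if undetermined), half-log dilutions. DMSO stocks at 800-fold test concentration.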

[1] = second compound 0.01 µM, first compound 0.0316 µM
[2] = second compound 0.01 µM, first compound 0.1 µM
[3] = second compound 0.01 µM, first compound 0.316 µM
[4] = second compound 0.01 µM, first compound 1 µM
[5] = second compound 0.0316 µM, first compound 0.0316 µM
[6] = second compound 0.0316 µM, first compound 0.1 µM
[7] = second compound 0.0316 µM, first compound 0.316 µM
[8] = second compound 0.0316 µM, first compound 1 µM
[9] = second compound 0.1 µM, first compound 0.0316 µM
[10] = second compound 0.1 µM, first compound 0.1 µM
[11] = second compound 0.1 µM, first compound 0.316 µM
[12] = second compound 0.1 µM, first compound 1 µM
[13] = second compound 0.316 µM, first compound 0.0316 µM
[14] = second compound 0.316 µM, first compound 0.1 µM
[15] = second compound 0.316 µM, first compound 0.316 µM
[16] = second compound 0.316 µM, first compound 1 µM
[17] = second compound 1 µM, first compound 0.0316 µM
[18] = second compound 1 µM, first compound 0.1 µM
[19] = second compound 1 µM, first compound 0.316 µM
[20] = second compound 1 µM, first compound 1 µM
[21] = second compound 0.01 µM, first compound 0.00316 µM
[22] = second compound 0.01 µM, first compound 0.01 µM
[23] = second compound 0.0316 µM, first compound 0.00316 µM
[24] = second compound 0.0316 µM, first compound 0.01 µM
[25] = second compound 0.1 µM, first compound 0.00316 µM
[26] = second compound 0.1 µM, first compound 0.01 µM
[27] = second compound 0.316 µM, first compound 0.00316 µM
[28] = second compound 0.316 µM, first compound 0.01 µM
[29] = second compound 1 µM, first compound 0.00316 µM
[30] = second compound 1 µM, first compound 0.01 µM

For `C#Cc1c(F)ccc2cc(O)cc(-c3ncc4c(N5CC6CCC(C5)N6)nc(OCC56CCCN5CC(F)C6)nc4c3F)c12` (stereo not given) + CNC(C)C(=O)NC1CN(S(=O)(=O)c2cccc(S(=O)(=O)N3CCC4CCC(C(=O)NC(c5ccccc5)c5ccccc5)N4C(=O)C(NC(=O)C(C)NC)C3)c2)CCC2CCC(C(=O)NC(c3ccccc3)c3ccccc3)N2C1=O, the IC50 (second compound 0.01 µM) was < 31.6 nM, the IC50 (second compound 0.0316 µM) was < 31.6 nM and the IC50 (second compound 0.1 µM) was < 31.6 nM. For the same molecule, the IC50 (second compound 0.316 µM) was < 31.6 nM, the IC50 (second compound 1 µM) was < 31.6 nM and the viability, T/C [1] was 8.46%. It also gave a viability, T/C [2] of 8.46%, a viability, T/C [3] of 4.34% and a viability, T/C [4] of 5.01%. The viability, T/C (second compound 0.01 µM, first compound 3.16 µM) was 4.3%, the viability, T/C (second compound 0.01 µM, first compound 10 µM) was 1.48% and the viability, T/C [5] was 5.72%. The viability, T/C [6] was 5.7%, the viability, T/C [7] was 4.82% and the viability, T/C [8] was 3.76%. For the same molecule, the viability, T/C (second compound 0.0316 µM, first compound 3.16 µM) was 4.16%, the viability, T/C (second compound 0.0316 µM, first compound 10 µM) was 0.96% and the viability, T/C [9] was 4.46%. For the same molecule, the viability, T/C [10] was 3.83%, the viability, T/C [11] was 4.97% and the viability, T/C [12] was 3.85%. For the same molecule, the viability, T/C (second compound 0.1 µM, first compound 3.16 µM) was 3.73%, the viability, T/C (second compound 0.1 µM, first compound 10 µM) was 0.77% and the viability, T/C [13] was 2.58%. The viability, T/C [14] was 2.92%, the viability, T/C [15] was 3.31% and the viability, T/C [16] was 3.63%. The viability, T/C (second compound 0.316 µM, first compound 3.16 µM) was 2.24%, the viability, T/C (second compound 0.316 µM, first compound 10 µM) was 1.04% and the viability, T/C [17] was 3.75%. The viability, T/C [18] was 2.83%, the viability, T/C [19] was 3.86% and the viability, T/C [20] was 2.71%. For the same molecule, the viability, T/C (second compound 1 µM, first compound 3.16 µM) was 2.69% and the viability, T/C (second compound 1 µM, first compound 10 µM) was 1.34%.

With `CCN1CCN(Cc2ccc(Nc3ncc(F)c(-c4cc(F)c5nc(C)n(C(C)C)c5c4)n3)nc2)CC1` + CNC(C)C(=O)NC1CN(S(=O)(=O)c2cccc(S(=O)(=O)N3CCC4CCC(C(=O)NC(c5ccccc5)c5ccccc5)N4C(=O)C(NC(=O)C(C)NC)C3)c2)CCC2CCC(C(=O)NC(c3ccccc3)c3ccccc3)N2C1=O the IC50 (second compound 0.01 µM) was < 3.16 nM, the IC50 (second compound 0.0316 µM) was < 3.16 nM and the IC50 (second compound 0.1 µM) was < 3.16 nM. For the same molecule, the IC50 (second compound 0.316 µM) was < 3.16 nM, the IC50 (second compound 1 µM) was < 3.16 nM and the viability, T/C [21] was 5.3%. It also gave a viability, T/C [22] of 6.9%, a viability, T/C [1] of 9.46% and a viability, T/C [2] of 7.15%. The viability, T/C [3] was 6.5%, the viability, T/C [4] was 5.95% and the viability, T/C [23] was 4.57%. The viability, T/C [24] was 4.1%, the viability, T/C [5] was 3.84% and the viability, T/C [6] was 4.62%. For the same molecule, the viability, T/C [7] was 6.92%, the viability, T/C [8] was 5.07% and the viability, T/C [25] was 3.7%. For the same molecule, the viability, T/C [26] was 4.39%, the viability, T/C [9] was 3.41% and the viability, T/C [10] was 3.01%. The viability, T/C [11] was 4.87%, the viability, T/C [12] was 3.86% and the viability, T/C [27] was 2.69%. For the same molecule, the viability, T/C [28] was 4.01%, the viability, T/C [13] was 3.79% and the viability, T/C [14] was 4.21%. It also gave a viability, T/C [15] of 3.33%, a viability, T/C [16] of 3.67% and a viability, T/C [29] of 2.84%. It also gave a viability, T/C [30] of 3.75%, a viability, T/C [17] of 3.08% and a viability, T/C [18] of 3.26%. It also gave a viability, T/C [19] of 3.93% and a viability, T/C [20] of 3.85%.

In the case of `C#Cc1c(F)ccc2cc(O)cc(-c3ncc4c(N5CC6CCC(C5)N6)nc(OCC56CCCN5CC(F)C6)nc4c3F)c12` (stereo not given) + CCN1C(C(=O)NC23CCC(C(=O)O)(CC2)CC3)C(c2cccc(Cl)c2F)C2(C(=O)Nc3cc(Cl)ccc32)C12CCCCC2, the IC50 (second compound 0.03 µM) is reported as > 10000 nM, the IC50 (second compound 0.0949 µM) is reported as > 10000 nM and the IC50 (second compound 0.3 µM) is reported as > 10000 nM. The IC50 (second compound 0.949 µM) was > 10000 nM, the IC50 (second compound 3 µM) was > 10000 nM and the viability, T/C (second compound 0.03 µM, first compound 0.0316 µM) was 96.4%. It also gave a viability, T/C (second compound 0.03 µM, first compound 0.1 µM) of 102%, a viability, T/C (second compound 0.03 µM, first compound 0.316 µM) of 97.6% and a viability, T/C (second compound 0.03 µM, first compound 1 µM) of 101%. The viability, T/C (second compound 0.03 µM, first compound 3.16 µM) was 88.7%, the viability, T/C (second compound 0.03 µM, first compound 10 µM) was 104% and the viability, T/C (second compound 0.0949 µM, first compound 0.0316 µM) was 102%. For the same molecule, the viability, T/C (second compound 0.0949 µM, first compound 0.1 µM) was 110%, the viability, T/C (second compound 0.0949 µM, first compound 0.316 µM) was 106% and the viability, T/C (second compound 0.0949 µM, first compound 1 µM) was 95.8%. It also gave a viability, T/C (second compound 0.0949 µM, first compound 3.16 µM) of 110%, a viability, T/C (second compound 0.0949 µM, first compound 10 µM) of 97.4% and a viability, T/C (second compound 0.3 µM, first compound 0.0316 µM) of 109%. The viability, T/C (second compound 0.3 µM, first compound 0.1 µM) was 108%, the viability, T/C (second compound 0.3 µM, first compound 0.316 µM) was 117% and the viability, T/C (second compound 0.3 µM, first compound 1 µM) was 96.9%. For the same molecule, the viability, T/C (second compound 0.3 µM, first compound 3.16 µM) was 97.5%, the viability, T/C (second compound 0.3 µM, first compound 10 µM) was 99% and the viability, T/C (second compound 0.949 µM, first compound 0.0316 µM) was 123%. The viability, T/C (second compound 0.949 µM, first compound 0.1 µM) was 123%, the viability, T/C (second compound 0.949 µM, first compound 0.316 µM) was 115% and the viability, T/C (second compound 0.949 µM, first compound 1 µM) was 93%. For the same molecule, the viability, T/C (second compound 0.949 µM, first compound 3.16 µM) was 115%, the viability, T/C (second compound 0.949 µM, first compound 10 µM) was 103% and the viability, T/C (second compound 3 µM, first compound 0.0316 µM) was 118%. The viability, T/C (second compound 3 µM, first compound 0.1 µM) was 123%, the viability, T/C (second compound 3 µM, first compound 0.316 µM) was 129% and the viability, T/C (second compound 3 µM, first compound 1 µM) was 114%. The viability, T/C (second compound 3 µM, first compound 3.16 µM) was 108% and the viability, T/C (second compound 3 µM, first compound 10 µM) was 114%.

In the case of `O=C(c1ccc(F)c(F)c1Nc1ccc(I)cc1F)N1CC(O)([C@@H]2CCCCN2)C1` + CNC(C)C(=O)NC1CN(S(=O)(=O)c2cccc(S(=O)(=O)N3CCC4CCC(C(=O)NC(c5ccccc5)c5ccccc5)N4C(=O)C(NC(=O)C(C)NC)C3)c2)CCC2CCC(C(=O)NC(c3ccccc3)c3ccccc3)N2C1=O, the IC50 (second compound 0.01 µM) is reported as < 3.16 nM, the IC50 (second compound 0.0316 µM) is reported as < 3.16 nM and the IC50 (second compound 0.1 µM) is reported as < 3.16 nM. For the same molecule, the IC50 (second compound 0.316 µM) was < 3.16 nM, the IC50 (second compound 1 µM) was < 3.16 nM and the viability, T/C [21] was 8.04%. The viability, T/C [22] was 5.36%, the viability, T/C [1] was 5.61% and the viability, T/C [2] was 8.2%. For the same molecule, the viability, T/C [3] was 12.4%, the viability, T/C [4] was 17.3% and the viability, T/C [23] was 3.55%. It also gave a viability, T/C [24] of 6.82%, a viability, T/C [5] of 5.25% and a viability, T/C [6] of 3.88%. For the same molecule, the viability, T/C [7] was 6.05%, the viability, T/C [8] was 7.48% and the viability, T/C [25] was 4.86%. For the same molecule, the viability, T/C [26] was 5.49%, the viability, T/C [9] was 4.59% and the viability, T/C [10] was 2.13%. It also gave a viability, T/C [11] of 3.06%, a viability, T/C [12] of 4.14% and a viability, T/C [27] of 7.23%. It also gave a viability, T/C [28] of 3.09%, a viability, T/C [13] of 3.2% and a viability, T/C [14] of 2.51%. For the same molecule, the viability, T/C [15] was 3.39%, the viability, T/C [16] was 3.61% and the viability, T/C [29] was 3.63%. The viability, T/C [30] was 3.54%, the viability, T/C [17] was 4.37% and the viability, T/C [18] was 2.53%. The viability, T/C [19] was 2.07% and the viability, T/C [20] was 3.08%.
